Earlier results in US20110130434A1, “MODIFIED RELEASE RAMIPRIL COMPOSITIONS AND USES THEREOF” (Panacea Biotec Ltd., priority 2008, published 2011).

Legend:
[1] = molecular target: ACE (Homo sapiens, UniProt P12821)
[2] = after oral administration of ramipril

ACE, sequence (P12821 30-1306, species assumed): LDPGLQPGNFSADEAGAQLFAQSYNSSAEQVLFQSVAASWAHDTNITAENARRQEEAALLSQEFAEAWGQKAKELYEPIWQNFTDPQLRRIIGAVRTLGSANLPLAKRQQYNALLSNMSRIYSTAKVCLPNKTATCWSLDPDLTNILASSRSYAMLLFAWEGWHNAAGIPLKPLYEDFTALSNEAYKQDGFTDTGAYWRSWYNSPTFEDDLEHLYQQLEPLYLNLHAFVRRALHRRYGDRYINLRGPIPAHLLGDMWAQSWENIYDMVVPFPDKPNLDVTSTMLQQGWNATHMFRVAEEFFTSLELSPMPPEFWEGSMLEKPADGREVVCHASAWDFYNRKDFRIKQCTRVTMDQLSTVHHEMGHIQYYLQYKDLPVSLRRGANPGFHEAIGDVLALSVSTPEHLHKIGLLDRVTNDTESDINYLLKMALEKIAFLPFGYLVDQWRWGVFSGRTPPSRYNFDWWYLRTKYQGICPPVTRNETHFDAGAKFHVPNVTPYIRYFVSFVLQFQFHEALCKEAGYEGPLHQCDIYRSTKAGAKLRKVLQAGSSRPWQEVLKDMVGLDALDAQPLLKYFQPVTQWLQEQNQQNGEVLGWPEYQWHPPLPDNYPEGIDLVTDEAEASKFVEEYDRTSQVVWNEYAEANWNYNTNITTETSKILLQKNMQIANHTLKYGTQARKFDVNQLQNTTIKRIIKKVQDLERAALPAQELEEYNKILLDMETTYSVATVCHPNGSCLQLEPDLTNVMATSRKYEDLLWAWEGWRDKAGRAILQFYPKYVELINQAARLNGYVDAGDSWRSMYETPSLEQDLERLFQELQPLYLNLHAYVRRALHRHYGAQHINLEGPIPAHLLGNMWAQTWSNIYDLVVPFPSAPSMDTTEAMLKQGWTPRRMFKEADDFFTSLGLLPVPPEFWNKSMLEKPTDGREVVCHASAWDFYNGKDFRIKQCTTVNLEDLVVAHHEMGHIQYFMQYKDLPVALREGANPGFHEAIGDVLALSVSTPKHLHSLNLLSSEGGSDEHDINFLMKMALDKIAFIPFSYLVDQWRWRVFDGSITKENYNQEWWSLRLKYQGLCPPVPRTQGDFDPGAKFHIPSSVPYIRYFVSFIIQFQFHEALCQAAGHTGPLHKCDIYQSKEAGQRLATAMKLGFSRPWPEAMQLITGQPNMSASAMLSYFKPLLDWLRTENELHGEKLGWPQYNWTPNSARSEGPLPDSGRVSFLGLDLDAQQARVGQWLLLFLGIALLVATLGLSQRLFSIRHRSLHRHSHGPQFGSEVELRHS

## C[C@H](N[C@@H](CCc1ccccc1)C(=O)O)C(=O)N1[C@H](C(=O)O)C[C@@H]2CCC[C@@H]21 [ramiprilat]
[1]
  ACE inhibitory activity relative to ramipril: 6 times
[2]
  half life: 13 to 17 h
